Experimental data from patent publication US20220265845A1, “AMINOTHIOLESTER COMPOUNDS AND USES THEREOF” (ADVANCED BIODESIGN, priority 2019, published 2022).

How the values were obtained:
Assay in all cases: Enzymatic assay with human recombinant ALDH (NADH fluorescence), IC50
Type in all cases: biochemical
Conditions in all cases: substrate Hexanal, NAD+, 37° C.
[1] = target: T1, Human recombinant ALDH1A1 (Homo sapiens, UniProt P00352)
T1 construct: purchased Creative BioMart, NY, USA
T1 sequence (P00352 1-501): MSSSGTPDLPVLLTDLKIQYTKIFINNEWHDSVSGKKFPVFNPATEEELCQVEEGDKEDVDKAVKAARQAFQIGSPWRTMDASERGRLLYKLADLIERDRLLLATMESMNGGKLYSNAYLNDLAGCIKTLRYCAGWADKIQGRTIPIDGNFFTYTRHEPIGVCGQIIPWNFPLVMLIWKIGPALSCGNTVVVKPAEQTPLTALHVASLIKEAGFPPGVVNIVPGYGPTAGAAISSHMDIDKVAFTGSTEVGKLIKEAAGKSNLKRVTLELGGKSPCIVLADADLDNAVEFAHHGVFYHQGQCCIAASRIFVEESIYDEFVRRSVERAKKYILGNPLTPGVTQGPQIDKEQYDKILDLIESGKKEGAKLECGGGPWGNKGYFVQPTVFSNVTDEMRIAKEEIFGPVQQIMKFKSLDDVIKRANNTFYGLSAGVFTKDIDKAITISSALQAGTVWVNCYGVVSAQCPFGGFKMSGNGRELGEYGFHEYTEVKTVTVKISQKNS
Procedure: (§1) Human recombinant ALDH1A1, ALDH1 A2, ALDH1A3, ALDH2 (Creative BioMart, NY, USA) were prepared at 1 mg/mL. The enzymatic reactions were performed using saturating concentrations of substrate. To test the enzymatic activity of the enzymes, 10 μL of enzyme was added into a reaction buffer containing 50 mM HEPES pH 7.2, 30 mM MgCl2, plus 20 mM NAD^+ cofactor and 2 mM Hexanal (Sigma-Aldrich, St. Louis, Mo., USA) in the presence or absence of the different tested compounds. Internal standards were prepared with Nicotinamide adenine dinucleotide reduce form (NADH, 500 μM, Sigma-Aldrich) in Reaction Buffer (50 mM HEPES pH 7.2, 30 mM MgCl2).
(§2) Time-dependent inhibition assays were performed for 0-2-5-10-15-20-30-45-60 min at 37° C. in 1 mL-quartz cuvette. The formation of NADH was monitored, reading samples at excitation wavelength=340 nm/emission wavelength=460 nm (fluorescence) for at least 600 sec using Cary Eclipse Varian fluorimeter.
(§3) Negative control consisted in the same reactions except that enzyme was not added (enzyme blank). To determine the slope for enzyme blank and calculate product concentration (Unit of fluorescence) the following formulae was used: […]
(§4) where Cst is the standard NADH concentration, Fst is the standard fluorescence and dF/dt is the slope of the time dependent fluorescence (S. Sotobodowska et al, 2012). The specific activity of the enzymes (μmol/min·mg-U/mg) in the absence of presence of inhibitors was calculated as follows: […]

[2] = target: T2, Human recombinant ALDH1A3 (Homo sapiens, UniProt P47895)
T2 construct: purchased Creative BioMart, NY, USA
T2 sequence (P47895 1-512): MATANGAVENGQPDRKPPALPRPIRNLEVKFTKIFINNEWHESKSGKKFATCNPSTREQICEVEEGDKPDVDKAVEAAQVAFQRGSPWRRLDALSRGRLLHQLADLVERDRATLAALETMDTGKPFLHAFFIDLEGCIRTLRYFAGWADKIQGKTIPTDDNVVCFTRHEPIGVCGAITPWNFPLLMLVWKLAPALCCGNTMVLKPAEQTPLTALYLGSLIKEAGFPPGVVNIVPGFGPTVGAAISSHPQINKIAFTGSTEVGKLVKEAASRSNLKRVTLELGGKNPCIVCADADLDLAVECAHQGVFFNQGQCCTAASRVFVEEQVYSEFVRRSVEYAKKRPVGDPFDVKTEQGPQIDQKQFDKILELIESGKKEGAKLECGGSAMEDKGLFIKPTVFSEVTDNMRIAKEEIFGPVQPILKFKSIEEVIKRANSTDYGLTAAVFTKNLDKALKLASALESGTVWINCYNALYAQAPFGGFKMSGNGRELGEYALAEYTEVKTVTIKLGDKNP
Procedure: as §1, §2, §3, §4

[3] = target: T3, Human recombinant ALDH1A2 (Homo sapiens, UniProt O94788)
T3 construct: purchased Creative BioMart, NY, USA
T3 sequence (O94788 1-518): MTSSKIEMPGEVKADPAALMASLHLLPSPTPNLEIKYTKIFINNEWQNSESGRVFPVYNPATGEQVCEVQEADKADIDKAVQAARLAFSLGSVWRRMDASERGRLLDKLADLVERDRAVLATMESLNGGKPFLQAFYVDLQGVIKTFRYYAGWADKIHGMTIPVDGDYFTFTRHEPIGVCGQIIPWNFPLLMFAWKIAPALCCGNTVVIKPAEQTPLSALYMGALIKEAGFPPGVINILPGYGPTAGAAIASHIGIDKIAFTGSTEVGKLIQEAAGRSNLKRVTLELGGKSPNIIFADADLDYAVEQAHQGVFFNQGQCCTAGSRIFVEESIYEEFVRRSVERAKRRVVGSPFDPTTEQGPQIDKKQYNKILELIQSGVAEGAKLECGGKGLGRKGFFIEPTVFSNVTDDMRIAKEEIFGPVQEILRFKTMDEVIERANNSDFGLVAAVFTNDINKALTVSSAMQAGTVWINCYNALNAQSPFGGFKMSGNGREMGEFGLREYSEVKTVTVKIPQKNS
Procedure: as §1, §2, §3, §4

Human recombinant ALDH2 = target: T4, Human recombinant ALDH2 (Homo sapiens, UniProt P05091)
T4 construct: purchased Creative BioMart, NY, USA
T4 sequence (P05091 18-517): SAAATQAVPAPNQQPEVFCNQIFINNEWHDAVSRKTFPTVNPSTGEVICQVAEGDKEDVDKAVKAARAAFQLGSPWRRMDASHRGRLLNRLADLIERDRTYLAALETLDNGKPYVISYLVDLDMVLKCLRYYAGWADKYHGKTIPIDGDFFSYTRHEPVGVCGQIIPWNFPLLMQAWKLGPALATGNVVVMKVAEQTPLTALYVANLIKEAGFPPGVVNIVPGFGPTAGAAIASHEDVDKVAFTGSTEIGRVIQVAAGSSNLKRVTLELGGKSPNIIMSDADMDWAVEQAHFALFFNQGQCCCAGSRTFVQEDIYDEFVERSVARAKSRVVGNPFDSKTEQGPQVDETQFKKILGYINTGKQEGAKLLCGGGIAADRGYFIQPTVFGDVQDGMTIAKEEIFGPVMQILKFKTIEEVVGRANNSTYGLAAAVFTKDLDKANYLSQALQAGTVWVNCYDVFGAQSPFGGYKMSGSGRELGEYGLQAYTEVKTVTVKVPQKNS
Procedure: as §1, §2, §3, §4

CSC(=O)C#CC(C)(C)N(C)CCOCc1ccccc1 [Example 3, S-methyl 4-[2-benzyloxyethyl(methyl)amino]-4-methyl-pent-2-ynethioate]
IC50 [1]: 3.8 ± 1.1 µM | IC50 [2]: 3.4 ± 0.1 µM | IC50 [3]: 0.568 ± 0.09 µM | IC50 (Human recombinant ALDH2): 3.1 ± 0.8 µM

CSC(=O)C#CC(C)(C)N(C)C [DIMATE, S-methyl 4-(dimethylamino)-4-methylpent-2-ynethioate, reference compound]
IC50 [1]: 37 ± 5 µM | IC50 [2]: 20 ± 2 µM | IC50 [3]: 18 ± 4 µM | IC50 (Human recombinant ALDH2): 72 ± 9 µM

CSC(=O)C#CC(C)(C)N(C)CCOCc1ccc(C)c(C)c1 [Example 5, S-methyl 4-[2-[(3,4-dimethylphenyl)methoxy]ethyl-methyl-amino]-4-methyl-pent-2-ynethioate]
IC50 [1]: 4.3 ± 0.4 µM | IC50 [2]: 4.8 ± 0.1 µM | IC50 [3]: 1.3 ± 0.2 µM | IC50 (Human recombinant ALDH2): 12 ± 3 µM
